We go through 5 molecules from ChEMBL document CHEMBL1159155, “An ether-based peptide analog as c-AMP-dependent protein kinase inhibitor/substrate” (Bioorg Med Chem Lett, 1994).

The species named for assay [1] is Bos taurus. As to the kind of experiment: Activity against bovine heart cAMP-dependent protein kinase.
Assay [2] is filed under the species Bos taurus. As to the kind of experiment: Affinity for bovine heart cAMP-dependent protein kinase.
The nature of assay [3]: Inhibition of bovine heart cAMP-dependent protein kinase (PKA). Also noted: species or system Bos taurus.

Non-standard residues stand in square brackets, D forms with d. Residues, ends and D or L forms follow the SMILES beside them. *: point of attachment. Bpa = N[C@@H](Cc1ccc(C(=O)c2ccccc2)cc1)C(=O)O; Npys = O=[N+]([O-])c1cccnc1S*; X1 = CC(C)CCOC[C@H](CO)N*

Turning to `CC(C)CCOC[C@H](CO)NC(=O)[C@H](C)NC(=O)[C@H](CCCN=C(N)N)NC(=O)[C@H](CCCN=C(N)N)NC(=O)[C@@H](N)CC(C)C` (H-LRRA-X1), the Vmax (in general, the top rate of the reaction or transport when substrate is in excess) in the assay listed under Bos taurus [1] is 0.107 µM/min/mg. In the assay listed under Bos taurus [2], the Km (in general, the substrate concentration at which the rate is half of its maximum) worked out at 108 µM. Moreover, in assay [3], the inhibition constant (Ki) (as a rule, the dissociation constant of the complex between target and ligand, obtained from inhibition or displacement) came out at 120 µM.

For `CC(C)C[C@H](NC(=O)[C@H](CSSc1ncccc1[N+](=O)[O-])NC(=O)[C@H](C)NC(=O)[C@H](CCCN=C(N)N)NC(=O)[C@H](CCCN=C(N)N)NC(=O)[C@@H](N)CC(C)C)C(=O)NCC(=O)O` (H-LRRAC(Npys)LG-OH), the Kd (usually the constant that tells how readily two partners part at equilibrium) in assay [3] was 40 µM.

In the case of `CC(C)C[C@H](NC(=O)[C@H](Cc1ccc(C(=O)c2ccccc2)cc1)NC(=O)[C@H](C)NC(=O)[C@H](CCCN=C(N)N)NC(=O)[C@H](CCCN=C(N)N)NC(=O)[C@@H](N)CC(C)C)C(=O)NCC(=O)O` (H-LRRA[Bpa]LG-OH), in assay [3], the Kd stood at 110 µM.

For `CC(C)C[C@H](NC(=O)[C@H](CO)NC(=O)[C@H](C)NC(=O)[C@H](CCCNC(=N)N)NC(=O)[C@H](CCCNC(=N)N)NC(=O)[C@@H](N)CC(C)C)C(=O)NCC(=O)O` [KEMPTIDE], in the assay filed under Bos taurus [2], the Km was determined as 4.6 µM and the Vmax amounted to 0.38 µM/min/mg. For the same molecule, the Kd in assay [3] turned out to be 250 µM.

For the molecule H-LRRAALG-OH, the Kd in assay [3] amounted to 490 µM.
